Among the data in US12643912B2, “Macrocyclic compounds, a process for their preparation and pharmaceutical compositions containing them” (LES LABORATOIRES SERVIER, priority 2020, dated 2026) are EC50 and Kd values, retold here.

Read-outs that look alike come from different tables or passages of the source.

Test [1] has as its system Nrf2 (Keap1-NRF2 nuclear translocation). As to the kind of experiment: U2OS translocation assay (PathHunter U2OS Keap1-NRF2 Nuclear Translocation Cell Line). Type of test: cell-based. The gist of the method:
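Enzyme-fragment complementation read-out: luminescence after 60 min of detection reagent at room temperature, following a 3 h, 37° C compound exposure of engineered U2OS Keap1-NRF2 translocation cells (1% FBS medium). Signal scaled from 1% DMSO basal to 10 μM andrographolide maximum.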

In the next test the target is T1, Keap1 (A321-C624) (h) (Homo sapiens, UniProt Q14145).
T1 construct: His-Thromb-KEAP1(A321-C624) acquired from Novalix (batch PU-P01) was immobilized covalently by amine coupling; His tag (N); thrombin cleavage site (Thromb) (N); purchased Novalix batch PU-P01
T1 sequence (Q14145 321-624): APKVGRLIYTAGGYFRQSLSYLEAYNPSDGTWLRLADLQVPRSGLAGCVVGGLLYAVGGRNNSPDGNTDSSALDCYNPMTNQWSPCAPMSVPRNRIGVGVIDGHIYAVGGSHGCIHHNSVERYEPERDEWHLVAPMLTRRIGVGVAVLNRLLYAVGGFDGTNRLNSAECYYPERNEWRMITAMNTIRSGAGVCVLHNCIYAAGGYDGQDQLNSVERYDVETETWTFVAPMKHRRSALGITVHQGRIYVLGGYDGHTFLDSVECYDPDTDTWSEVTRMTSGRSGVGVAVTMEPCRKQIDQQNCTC
As to the kind of experiment: Surface Plasmon Resonance binding assay to Kelch domain of KEAP1. The following applies: Biacore T200, 25° C., immobilized His-Thromb-KEAP1(A321-C624), single cycle kinetics, KD=kd/ka from 1:1 fit; read-out: Keap1 (A321-C624) (h) direct/SPR (KD). The procedure: EXAMPLE 85: SURFACE PLASMON RESONANCE
Binding assay to Kelch domain of KEAP1 was performed by Surface Plasmon Resonance (SPR) on a Biacore T200 (GE Healthcare) at 25° C. using CM5 chip. His-Thromb-KEAP1(A321-C624) acquired from Novalix (batch PU-P01) was immobilized covalently by amine coupling using standard wizard protocol, at a concentration of 20 μg/mL in sodium acetate pH 5.5. The ligand was captured until 1250 RU was reached. Amine blank is used as the reference flow cell. Binding of analyte to the ligand was monitored in real time with associations of 180 seconds and a dissociation of 720 seconds. Association (ka) and dissociation (kd) rates were fitted with a simple 1:1 kinetic interaction model using Biacore T200 Evaluation Software (GE Healthcare). The equilibrium constant (KD=kd/ka) was calculated from these fitted parameters. […] The Biacore binding assay was performed with a flowrate of 50 μL/min using a running buffer of 10 mM HEPES (pH 7.4), 150 mM NaCl, 3 mM EDTA, 1 mM TCEP, 0.05% P20,5% DMSO. Double subtraction was used by subtracting both reference flow cell and previous blank cycle (with running buffer). Solvent correction was applied to correct DMSO bulk effect.
(In SPR one partner is held on a chip, and binding of the other changes the refractive index at the surface.)

Where [2] appears, read: Homo sapiens, U2OS, 3 h, read-out: CELLULAR U2OS EC50 (nM), U2OS Keap1-NRF2 nuclear translocation cells, 3 h incubation, luminescence, normalized between 1% DMSO and 10 μM andrographolide.
The mark [3] stands for this setting: read-out: CELLULAR U2OS EC50, U2OS Keap1-NRF2 nuclear translocation cells, 3 h incubation, luminescence, normalized between 1% DMSO and 10 μM andrographolide.

Regarding `Cc1ccc2cc1CN1Cc3cc(ccc3OS1(=O)=O)OCCCn1nnc3c(C)c(ccc31)C2CC(=O)O` (racemic) [Example 2, [4,30-Dimethyl-26,26-dioxo-20,25-dioxa-26λ^6-thia-1,14,15,16-tetraazahexacyclo[19.5.3.1^3,70.1^9,130.0^12,160.0^24,28]hentriaconta-3(31),4,6,9(30),10,12,14,21,23,28-decaen-8-yl]acetic acid], in test [1] (setting [2]), the EC50 (in general, the concentration giving half of the maximal effect) came out at 830 nM. The Kd on Keap1 (A321-C624) (h) turned out to be 35.2 nM.

`Cc1ccc2cc1CN1Cc3cc(ccc3OS1(=O)=O)OCCCCCn1nnc3c(C)c(ccc31)C2CC(=O)O` (single isomer, unassigned) [Example 1a, [4,32-dimethyl-28,28-dioxo-22,27-dioxa-28λ^6-thia-1,14,15,16-tetraazahexacyclo[21.5.3.1^3,70.1^9,130.0^12,160.0^26,30]tritriaconta-3(33),4,6,9(32),10,12,14,23,25,30-decaen-8-yl]acetic acid]: the EC50 in test [1] (setting [3]) is 10.1 nM. Besides, the Kd on Keap1 (A321-C624) (h) is 0.181 nM.

Regarding `Cc1ccc2cc1CN1Cc3cc(ccc3OS1(=O)=O)OCCCCCn1nnc3c(C)c(ccc31)C2CC(=O)O` (single isomer, unassigned) [Example 1b, [4,32-dimethyl-28,28-dioxo-22,27-dioxa-28λ^6-thia-1,14,15,16-tetraazahexacyclo[21.5.3.1^3,70.1^9,130.0^12,160.0^26,30]tritriaconta-3(33),4,6,9(32),10,12,14,23,25,30-decaen-8-yl]acetic acid], the concentration giving a half-maximal response (EC50) in test [1] (setting [3]) is 735 nM. Moreover, at Keap1 (A321-C624) (h), the Kd stood at 3.97 nM.

Turning to `COc1cc2cc(c1)C(CC(=O)O)c1ccc3c(nnn3CCCCOc3ccc4c(c3)CN(C2)S(=O)(=O)O4)c1C` (single isomer, unassigned) [Example 8a, [5-Methoxy-31-methyl-27,27-dioxo-21,26-dioxa-27λ^6-thia-1,14,15,16-tetraazahexacyclo[20.5.3.1^3,70.1^9,130.0^12,160.0^25,29]dotriaconta-3(32),4,6,9(31),10,12,14,22,24,29-decaen-8-yl]acetic acid], the EC50 in test [1] (setting [2]) came out at 986 nM. The Kd at Keap1 (A321-C624) (h) came to 62.2 nM.

As to `COc1cc2cc(c1)C(CC(=O)O)c1ccc3c(nnn3CCCCOc3ccc4c(c3)CN(C2)S(=O)(=O)O4)c1C` (single isomer, unassigned) [Example 8b, [5-Methoxy-31-methyl-27,27-dioxo-21,26-dioxa-27λ^6-thia-1,14,15,16-tetraazahexacyclo[20.5.3.1^3,70.1^9,130.0^12,160.0^25,29]dotriaconta-3(32),4,6,9(31),10,12,14,22,24,29-decaen-8-yl]acetic acid], the EC50 in test [1] (setting [3]) stood at 516 nM. Besides, on Keap1 (A321-C624) (h), the Kd was found to be 12.4 nM.

Regarding `Cc1c2ccc3c1nnn3CCCCOc1ccc3c(c1)CN(Cc1cc(ccc1Cl)C2CC(=O)O)S(=O)(=O)O3` (single isomer, unassigned) [Example 9a, [4-Chloro-31-methyl-27,27-dioxo-21,26-dioxa-27λ^6-thia-1,14,15,16-tetraazahexacyclo[20.5.3.1^3,70.1^9,130.0^12,160.0^25,29]dotriaconta-3(32),4,6,9(31),10,12,14,22,24,29-decaen-8-yl]acetic acid], the EC50 in test [1] (setting [3]) came out at 48.2 nM. Moreover, on Keap1 (A321-C624) (h), the Kd was 2.12 nM.

With `Cc1c2ccc3c1nnn3CCCCOc1ccc3c(c1)CN(Cc1cc(ccc1Cl)C2CC(=O)O)S(=O)(=O)O3` (single isomer, unassigned) [Example 9b, [4-Chloro-31-methyl-27,27-dioxo-21,26-dioxa-27λ^6-thia-1,14,15,16-tetraazahexacyclo[20.5.3.1^3,70.1^9,130.0^12,160.0^25,29]dotriaconta-3(32),4,6,9(31),10,12,14,22,24,29-decaen-8-yl]acetic acid], in test [1] (setting [3]), the EC50 worked out at 845 nM. Besides, the Kd at Keap1 (A321-C624) (h) was determined as 9.99 nM.

`COc1ccc2cc1CN1Cc3cc(ccc3OS1(=O)=O)OCCCCn1nnc3c(C)c(ccc31)C2CC(=O)O` (single isomer, unassigned) [Example 10a, [4-Methoxy-31-methyl-27,27-dioxo-21,26-dioxa-27λ^6-thia-1,14,15,16-tetraazahexacyclo[20.5.3.1^3,70.1^9,130.0^12,160.0^25,29]dotriaconta-3(32),4,6,9(31),10,12,14,22,24,29-decaen-8-yl]acetic acid]: the EC50 in test [1] (setting [3]) amounted to 58.1 nM. Further, at Keap1 (A321-C624) (h), the Kd was 3.54 nM.

For the molecule `COc1ccc2cc1CN1Cc3cc(ccc3OS1(=O)=O)OCCCCn1nnc3c(C)c(ccc31)C2CC(=O)O` (single isomer, unassigned) [Example 10b, [4-Methoxy-31-methyl-27,27-dioxo-21,26-dioxa-27λ^6-thia-1,14,15,16-tetraazahexacyclo[20.5.3.1^3,70.1^9,130.0^12,160.0^25,29]dotriaconta-3(32),4,6,9(31),10,12,14,22,24,29-decaen-8-yl]acetic acid], the EC50 in test [1] (setting [3]) is 369 nM. On Keap1 (A321-C624) (h), the Kd worked out at 15.1 nM.

Consider `Cc1ccc2cc1CN1Cc3cc(ccc3OS1(=O)=O)OCCCCCCn1nnc3c(C)c(ccc31)C2CC(=O)O` (single isomer, unassigned) [Example 11a, [4,33-Dimethyl-29,29-dioxo-23,28-dioxa-29λ^6-thia-1,14,15,16-tetraazahexacyclo[22.5.3.1^3,70.1^9,130.0^12,160.0^27,31]tetratriaconta-3(34),4,6,9(33),10,12,14,24,26,31-decaen-8-yl]acetic acid], for which, in test [1] (setting [3]), the EC50 is 109 nM. In addition, the Kd on Keap1 (A321-C624) (h) is 2.42 nM.

Turning to `Cc1ccc2cc1CN1Cc3cc(ccc3OS1(=O)=O)OCCCCCCn1nnc3c(C)c(ccc31)C2CC(=O)O` (single isomer, unassigned) [Example 11b, [4,33-Dimethyl-29,29-dioxo-23,28-dioxa-29λ^6-thia-1,14,15,16-tetraazahexacyclo[22.5.3.1^3,70.1^9,130.0^12,160.0^27,31]tetratriaconta-3(34),4,6,9(33),10,12,14,24,26,31-decaen-8-yl]acetic acid], the EC50 in test [1] (setting [3]) was found to be 13.1 nM. In addition, on Keap1 (A321-C624) (h), the Kd was determined as 0.778 nM.

Regarding `Cc1c2ccc3c1nnn3CCCCOc1ccc3c(c1)CN(Cc1cc(cc(C(F)(F)F)c1)C2CC(=O)O)S(=O)(=O)O3` (single isomer, unassigned) [Example 12a, [31-Methyl-27,27-dioxo-5-(trifluoromethyl)-21,26-dioxa-27λ^6-thia-1,14,15,16-tetraazahexacyclo[20.5.3.1^3,70.1^9,130.0^12,160.0^25,29]dotriaconta-3(32),4,6,9(31),10,12,14,22,24,29-decaen-8-yl]acetic acid], in test [1] (setting [2]), the EC50 turned out to be 3160 nM. For the same molecule, on Keap1 (A321-C624) (h), the Kd worked out at 3070 nM.

Take `Cc1c2ccc3c1nnn3CCCCOc1ccc3c(c1)CN(Cc1cc(cc(C(F)(F)F)c1)C2CC(=O)O)S(=O)(=O)O3` (single isomer, unassigned) [Example 12b, [31-Methyl-27,27-dioxo-5-(trifluoromethyl)-21,26-dioxa-27λ^6-thia-1,14,15,16-tetraazahexacyclo[20.5.3.1^3,70.1^9,130.0^12,160.0^25,29]dotriaconta-3(32),4,6,9(31),10,12,14,22,24,29-decaen-8-yl]acetic acid]: the EC50 in test [1] (setting [3]) is over 3160 nM. Also, the Kd at Keap1 (A321-C624) (h) is 2920 nM.

For `Cc1ccc2cc1CN1Cc3cc(cc(C)c3OS1(=O)=O)OCCCCn1nnc3c(C)c(ccc31)C2CC(=O)O` (single isomer, unassigned) [Example 15a, [4,24,31-Trimethyl-27,27-dioxo-21,26-dioxa-27λ^6-thia-1,14,15,16-tetraazahexacyclo[20.5.3.1^3,70.1^9,130.0^12,160.0^25,29]dotriaconta-3(32),4,6,9(31),10,12,14,22,24,29-decaen-8-yl]acetic acid], the EC50 in test [1] (setting [3]) is 57.9 nM. For the same molecule, the Kd on Keap1 (A321-C624) (h) stood at 1.92 nM.

Consider `Cc1ccc2cc1CN1Cc3cc(cc(C)c3OS1(=O)=O)OCCCCn1nnc3c(C)c(ccc31)C2CC(=O)O` (single isomer, unassigned) [Example 15b, [4,24,31-Trimethyl-27,27-dioxo-21,26-dioxa-27λ^6-thia-1,14,15,16-tetraazahexacyclo[20.5.3.1^3,70.1^9,130.0^12,160.0^25,29]dotriaconta-3(32),4,6,9(31),10,12,14,22,24,29-decaen-8-yl]acetic acid], for which the EC50 in test [1] (setting [3]) came out at 381 nM. In addition, the Kd at Keap1 (A321-C624) (h) turned out to be 4.41 nM.

Regarding `COc1cc2cc3c1OS(=O)(=O)N(Cc1cc(ccc1C)C(CC(=O)O)c1ccc4c(nnn4CCCCO2)c1C)C3` (single isomer, unassigned) [Example 16a, [24-Methoxy-4,31-dimethyl-27,27-dioxo-21,26-dioxa-27λ^6-thia-1,14,15,16-tetraazahexacyclo[20.5.3.1^3,70.1^9,130.0^12,160.0^25,29]dotriaconta-3(32),4,6,9(31),10,12,14,22,24,29-decaen-8-yl]acetic acid], the EC50 in test [1] (setting [3]) is 871 nM. For the same molecule, at Keap1 (A321-C624) (h), the Kd stood at 4.03 nM.
